Values after ≈ are worked out from the molar mass of the structure shown.
Legend:
Staphylococcus aureus [1] = assay: Antibacterial activity against methicillin-resistant Staphylococcus aureus isolate SA1114 by CLSI M100-S17 protocol based broth dilution method; format: functional
Staphylococcus aureus [2] = assay: Antibacterial activity against methicillin-susceptible Staphylococcus aureus ATCC 29213 by CLSI M100-S17 protocol based broth dilution method; format: functional

| Compound | MIC (Staphylococcus aureus [1]) [µg/mL] | MIC (Staphylococcus aureus [2]) [µg/mL] |
| --- | --- | --- |
| CC[C@@H](C)[C@@H](NC(=O)[C@@H](CCC(N)=O)NC(=O)[C@H](CO)NC(=O)[C@@H](NC(=O)[C@@H](Cc1ccccc1)NC)[C@@H](C)CC)C(=O)N[C@H](C(=O)N[C@@H](CO)C(=O)N[C@H]1C(=O)N[C@@H](C)C(=O)N[C@@H](C2CCCCC2)C(=O)N[C@@H]([C@@H](C)CC)C(=O)O[C@H]1C)[C@@H](C)CC | 1 (≈ 0.815 µM) | 0.25 (≈ 0.204 µM) |
| CC[C@@H](C)[C@@H](NC(=O)[C@@H](CCC(N)=O)NC(=O)[C@H](CO)NC(=O)[C@@H](NC(=O)[C@@H](Cc1ccccc1)NC)[C@@H](C)CC)C(=O)N[C@H](C(=O)N[C@@H](CO)C(=O)N[C@H]1C(=O)N[C@@H](C)C(=O)N[C@@H](CC2CCCCC2)C(=O)N[C@@H]([C@@H](C)CC)C(=O)O[C@H]1C)[C@@H](C)CC | 2 (≈ 1.61 µM) | 0.5 (≈ 0.403 µM) |
| CC[C@@H](C)[C@@H](NC(=O)[C@@H](CCC(N)=O)NC(=O)[C@H](CO)NC(=O)[C@@H](NC(=O)[C@@H](Cc1ccccc1)NC)[C@@H](C)CC)C(=O)N[C@H](C(=O)N[C@@H](CO)C(=O)N[C@H]1C(=O)N[C@@H](C)C(=O)NC(C)(C)C(=O)N[C@@H]([C@@H](C)CC)C(=O)O[C@H]1C)[C@@H](C)CC | ≥ 32 | ≥ 32 |
| CCC[C@@H]1NC(=O)[C@H](C)NC(=O)[C@H](NC(=O)[C@H](CO)NC(=O)[C@@H](NC(=O)[C@H](NC(=O)[C@@H](CCC(N)=O)NC(=O)[C@H](CO)NC(=O)[C@@H](NC(=O)[C@@H](Cc2ccccc2)NC)[C@@H](C)CC)[C@H](C)CC)[C@@H](C)CC)[C@H](C)OC(=O)[C@H]([C@@H](C)CC)NC1=O | 1 to 2 (≈ 0.842 to 1.68 µM) | 0.25 (≈ 0.211 µM) |
| CC[C@@H](C)[C@@H](NC(=O)[C@@H](CCC(N)=O)NC(=O)[C@H](CO)NC(=O)[C@@H](NC(=O)[C@@H](Cc1ccccc1)NC)[C@@H](C)CC)C(=O)N[C@H](C(=O)N[C@@H](CO)C(=O)N[C@H]1C(=O)N[C@@H](C)C(=O)N[C@@H](CC2CC2)C(=O)N[C@@H]([C@@H](C)CC)C(=O)O[C@H]1C)[C@@H](C)CC | 2 (≈ 1.67 µM) | 0.5 (≈ 0.417 µM) |
| CCCC[C@@H]1NC(=O)[C@H](C)NC(=O)[C@H](NC(=O)[C@H](CO)NC(=O)[C@@H](NC(=O)[C@H](NC(=O)[C@@H](CCC(N)=O)NC(=O)[C@H](CO)NC(=O)[C@@H](NC(=O)[C@@H](Cc2ccccc2)NC)[C@@H](C)CC)[C@H](C)CC)[C@@H](C)CC)[C@H](C)OC(=O)[C@H]([C@@H](C)CC)NC1=O | 2 (≈ 1.66 µM) | 0.5 (≈ 0.416 µM) |
| CC[C@@H](C)[C@@H](NC(=O)[C@@H](CCC(N)=O)NC(=O)[C@H](CO)NC(=O)[C@@H](NC(=O)[C@@H](Cc1ccccc1)NC)[C@@H](C)CC)C(=O)N[C@H](C(=O)N[C@@H](CO)C(=O)N[C@H]1C(=O)N[C@@H](C)C(=O)N[C@H](CCCCN)C(=O)N[C@@H]([C@@H](C)CC)C(=O)O[C@H]1C)[C@@H](C)CC | ≥ 32 | ≥ 32 |
